The values below come from ChEMBL document CHEMBL4330117, “Synthesis, biological evaluation and molecular docking of benzimidazole grafted benzsulfamide-containing pyrazole ring derivatives as novel tubulin polymerization inhibitors” (Bioorg Med Chem, 2019).

Active and inactive are the calls of the source. The calls are words filed in the database; no cut-off is given here.

One data set relates to MCF7. In words: Antiproliferative activity against human MCF7 cells after 24 hrs by MTT assay. Particulars: MCF7, 24 h. The class given is functional, cell-based. (In general: Tetrazolium assays rely on reduction of a dye to a coloured formazan, in cell work by metabolically active cells.)
In a further data set the test system is Rattus norvegicus. In words: Antitumor activity against rat hepatoma H22 cells implanted in mouse assessed as reduction in tumor volume at 3 mg/kg, ip measured after 8 to 28 days. The class given is functional, organism-based.
For a further data set, the system named is HepG2. In words: Antiproliferative activity against human HepG2 cells after 24 hrs by MTT assay. Conditions: HepG2, 24 h. The class given is functional, cell-based.
The subject of a further data set is HeLa. Description: Antiproliferative activity against human HeLa cells after 24 hrs by MTT assay. The class given is functional, cell-based.
The nature of data set [1]: Cytotoxicity against HEK293T cells after 24 hrs by MTT assay. It counts as cell-based, HEK-293T. Particulars: human.
Data set [2] in a line: Cytotoxicity against mouse primary hepatocytes after 24 hrs by MTT assay. It counts as cell-based, Hepatocyte.
The test system of the next data set is A549. Description: Antiproliferative activity against human A549 cells after 24 hrs by MTT assay. It counts as functional, cell-based. Conditions: A549, 24 h.
A short description of data set [3]: Toxicity in mouse xenografted with rat H22 cells assessed as weight loss at 3 mg/kg, ip measured after 28 days. The class given is organism-based. Particulars: in vivo, 672 h.
Data set [4] deals with T1, Tubulin (Bos taurus) (UniProt Q6B856+Q862L2+Q862F3). Description: Inhibition of vinblastine binding to bovine brain tubulin at 5 uM.
Data set [5] concerns the target T1, Tubulin (Bos taurus). Description: Inhibition of [3H]colchicine binding to bovine brain tubulin at 5 uM.

What is called IC50 is the midpoint of a concentration-inhibition curve. The low end stands for greater potency, the high end for weaker potency. By CC50 is commonly meant the concentration that lowers cell viability or growth by half. High values mean lower toxicity to the cells, low ones greater toxicity to the cells. Consider `COc1ccc(/C=C\c2cc(OC)c(OC)c(OC)c2)cc1O` [COMBRETASTATIN A4], for which the IC50 in the data set with MCF7 was 0.18 µM; in the data set with HepG2 it was 0.33 µM; with HeLa, 0.24 µM; in the data set on A549, 0.16 µM. Moreover, in the data set with Rattus norvegicus, the outcome was Active. Further, the CC50 at 24 h is 162 µM in data set [1] and 178 µM in data set [2]. Further, the Activity result in data set [3] is on record as “Toxic”.
One may read the inhibition as the change of the read-out against control, counted positive when it falls. For `O=S(=O)(c1ccc(C(F)(F)F)cc1)n1c(-c2cn(-c3ccccc3)nc2-c2ccc(F)cc2)nc2ccccc21`, the half-maximal inhibitory concentration (IC50) with MCF7 came out at 1.58 µM; in the data set with HepG2, 1.68 µM; with HeLa, 1.43 µM; with A549 it was 1.28 µM. Further, the inhibition at Tubulin (Bos taurus) [4] was determined as 0.51%; at Tubulin (Bos taurus) [5], 50%. Further, the 50% cytotoxic concentration (CC50) at 24 h stood at 241 µM in data set [1] and 55.3 µM in data set [2].
Take `Cc1ccc(-c2nn(-c3ccccc3)cc2-c2nc3ccccc3[nH]2)cc1`: the half-maximal inhibitory concentration (IC50) with MCF7 is 7.26 µM; with HepG2, 6.26 µM; with HeLa it was 4.95 µM; in the data set with A549, 4.01 µM. The inhibition at Tubulin (Bos taurus) [4] is 0.05%; at Tubulin (Bos taurus) [5] it was 40%. Moreover, the 50% cytotoxic concentration (CC50) at 24 h is 187 µM in data set [1] and greater than 300 µM in data set [2].
In the case of `Cc1ccc(-c2nn(-c3ccccc3)cc2-c2nc3ccccc3n2S(=O)(=O)c2ccccc2)cc1`, the IC50 came out at 0.83 µM in the data set on MCF7, 0.96 µM in the data set on HepG2, 0.82 µM in the data set on HeLa and 0.76 µM with A549. Moreover, the inhibition on Tubulin (Bos taurus) [4] came to 0.21%; at Tubulin (Bos taurus) [5], 74%. Also, the half-maximal cytotoxic concentration (CC50) at 24 h in data set [1] worked out at 138 µM; in data set [2], 189 µM.
As for `COc1ccc(S(=O)(=O)n2c(-c3cn(-c4ccccc4)nc3-c3ccc(F)cc3)nc3ccccc32)cc1`, the IC50 worked out at 0.53 µM in the data set with MCF7, 0.47 µM with HepG2, 0.39 µM in the data set with HeLa and 0.35 µM in the data set with A549. Besides, the inhibition on Tubulin (Bos taurus) [4] stood at 2.98%; at Tubulin (Bos taurus) [5] it was 77%. Further, the CC50 at 24 h was 37.3 µM in [1] and 105 µM in [2].
Regarding `O=S(=O)(c1ccc(F)cc1)n1c(-c2cn(-c3ccccc3)nc2-c2ccc(F)cc2)nc2ccccc21`, the IC50 is 3.67 µM with MCF7, 3.52 µM in the data set on HepG2, 2.44 µM in the data set with HeLa and 2.37 µM in the data set on A549. Besides, the inhibition at Tubulin (Bos taurus) [4] is 1.32%; on Tubulin (Bos taurus) [5] it was 48%. Besides, the CC50 at 24 h in [1] was found to be 218 µM; in [2], 174 µM.
For `O=[N+]([O-])c1ccc(S(=O)(=O)n2c(-c3cn(-c4ccccc4)nc3-c3ccc(F)cc3)nc3ccccc32)cc1`, the IC50 with MCF7 was 1.37 µM; in the data set with HepG2 it was 1.34 µM; with HeLa it was 1.17 µM; with A549 it was 1.03 µM. Besides, the inhibition is -0.04 to 0.3% on Tubulin (Bos taurus) [4] and 51% at Tubulin (Bos taurus) [5]. Further, the cytotoxic concentration (CC50) at 24 h in data set [1] was 189 µM; in data set [2] it was greater than 300 µM.
With `O=S(=O)(c1ccc(Cl)cc1)n1c(-c2cn(-c3ccccc3)nc2-c2ccc(C(F)(F)F)cc2)nc2ccccc21`, the IC50 came to 4.32 µM in the data set with MCF7, 3.93 µM with HepG2, 3.06 µM with HeLa and 2.56 µM with A549. Further, the figures for the inhibition at Tubulin (Bos taurus) [4] and at Tubulin (Bos taurus) [5] were 0.73% and 40%, respectively. Further, the CC50 at 24 h in [1] is 75.3 µM; in data set [2] it was 173 µM.
`O=S(=O)(c1ccc(Cl)cc1)n1c(-c2cn(-c3ccccc3)nc2-c2ccc(F)cc2)nc2ccccc21`: the IC50 with MCF7 was determined as 4.96 µM; in the data set on HepG2 it was 4.23 µM; with HeLa, 3.45 µM; with A549 it was 3.17 µM. Further, the figures for the inhibition on Tubulin (Bos taurus) [4] and at Tubulin (Bos taurus) [5] were -2.09 to 2.7% and 48%, respectively. In addition, the figures for the CC50 at 24 h in [1] and in data set [2] were 93.1 µM and 231 µM, respectively.
